From paper PMC10748408 (Frontiers in Oncology, 2023)
Marks after values point to notes of the source that are not given here.

Assays:
tumor-bearing mice = assay: Hematological parameters of tumor-bearing mice treated with ART; assay type: in vivo, BALB/c mice; conditions: 7 days
MDA-MB-231 cells = assay: Apoptotic cells (Annexin-FITC/PI flow cytometry) with or without CLEC12A overexpression; assay type: cell-based, Human; conditions: MDA-MB-231, non-transfected, ART + (5 µM, 24 hours); without ART 0.5%
Procedure: Cells, isolated from normal and treated/untreated tumor tissues by collagenase-hyaluronidase digestion, were washed with Ca^2+-free PBS and stained with Annexin V binding buffer (1X). The cells were then incubated with Annexin V-FITC and propidium iodide (PI) for 15 minutes at 37°C. Cells were eventually analyzed on the BD FACS Aria III (Alexa Fluor at 488nm and PE at 570 nm, respectively). The percentage of apoptotic and necrotic cells were analyzed using the […]™ software (BD Biosciences, USA; [37]). For transfection, MDA-MB-231 and 4T1 cells were grown in a 6-well plate until they reached 70% confluency. CLEC12A-pcDNA recombinant/empty DNA plasmid (2500ng) or pcDNA empty vector (2500ng) was transfected into cells using 5μl Lipofectamine® 2000 reagent. […] Finally, transfection efficiency was confirmed by western blot analysis ([42]).

Body weight of mice = assay type: in vivo, BALB/c mice
Procedure: Mouse mammary 4T1 cells in passage numbers between 7 and 12 (10^4 cells/ml in 50 µl PBS) were injected into the inguinal 4th mammary fat pad of BALB/c mice ([23], [24]). Normal mice received an equal volume of sterile PBS. A palpable tumor was allowed to develop for 14 days ([24]). […] Normal (mammary fat pad surrounding the 4th inguinal mammary pad), mammary tumor, and organs like lungs, kidney, liver, and blood were collected at the end of the experimental schedule. Body weight and tumor volume of each mouse were recorded daily during the tenure of the experiment. Tumor volume was calculated using the following formula: length (mm) × width^2 (mm) × 0.52 ([25]).

SMILES: C[C@@H]1CC[C@H]2[C@@H](C)C(=O)O[C@@H]3O[C@@]4(C)CC[C@@H]1[C@]32OO4 [ART, Artemisinin]
- Differential Count % B (Basophils) (tumor-bearing mice; ART 6.25 mg/kg body wt i.p.): 0%
- Differential Count % E (Eosinophils) (tumor-bearing mice; ART 6.25 mg/kg body wt i.p.): 0%
- Differential Count % L (Lymphocyte) (tumor-bearing mice; ART 6.25 mg/kg body wt i.p.): 36± 2.5%
- Differential Count % M (Monocytes) (tumor-bearing mice; ART 6.25 mg/kg body wt i.p.): 1%
- Differential Count % N (Neutrophils) (tumor-bearing mice; ART 6.25 mg/kg body wt i.p.): 63± 1.4%
- Hb (tumor-bearing mice; ART 6.25 mg/kg body wt i.p.): 10.1 ± 0.42 g/dL
- Total RBC (tumor-bearing mice; ART 6.25 mg/kg body wt i.p.): 5.1± 0.1 10^6 cells/mm^3
- Total WBC (tumor-bearing mice; ART 6.25 mg/kg body wt i.p.): 16.8± 0.8** 10^3 cells/mm^3
- Differential Count % B (Basophils) (tumor-bearing mice; ART 12.5 mg/kg body wt i.p.): 0%
- Differential Count % E (Eosinophils) (tumor-bearing mice; ART 12.5 mg/kg body wt i.p.): 0%
- Differential Count % L (Lymphocyte) (tumor-bearing mice; ART 12.5 mg/kg body wt i.p.): 51± 2.6 %
- Differential Count % M (Monocytes) (tumor-bearing mice; ART 12.5 mg/kg body wt i.p.): 1%
- Differential Count % N (Neutrophils) (tumor-bearing mice; ART 12.5 mg/kg body wt i.p.): 48± 2.6 %
- Hb (tumor-bearing mice; ART 12.5 mg/kg body wt i.p.): 13.7 ± 0.33 g/dL
- Total RBC (tumor-bearing mice; ART 12.5 mg/kg body wt i.p.): 6.3± 0.29^* 10^6 cells/mm^3
- Total WBC (tumor-bearing mice; ART 12.5 mg/kg body wt i.p.): 10.2± 1.16^*** 10^3 cells/mm^3
- Differential Count % B (Basophils) (tumor-bearing mice; ART 25 mg/kg body wt i.p.): 0%
- Differential Count % E (Eosinophils) (tumor-bearing mice; ART 25 mg/kg body wt i.p.): 0%
- Differential Count % L (Lymphocyte) (tumor-bearing mice; ART 25 mg/kg body wt i.p.): 53± 2.1 %
- Differential Count % M (Monocytes) (tumor-bearing mice; ART 25 mg/kg body wt i.p.): 1%
- Differential Count % N (Neutrophils) (tumor-bearing mice; ART 25 mg/kg body wt i.p.): 46± 1.3 %
- Hb (tumor-bearing mice; ART 25 mg/kg body wt i.p.): 14.2 ± 0.21 g/dL
- Total RBC (tumor-bearing mice; ART 25 mg/kg body wt i.p.): 6.7± 0.14^* 10^6 cells/mm^3
- Total WBC (tumor-bearing mice; ART 25 mg/kg body wt i.p.): 9.3± 1.8^*** 10^3 cells/mm^3
- Differential Count % B (Basophils) (tumor-bearing mice; ART 50 mg/kg body wt i.p.): 0%
- Differential Count % E (Eosinophils) (tumor-bearing mice; ART 50 mg/kg body wt i.p.): 0%
- Differential Count % L (Lymphocyte) (tumor-bearing mice; ART 50 mg/kg body wt i.p.): 57± 1.2 %
- Differential Count % M (Monocytes) (tumor-bearing mice; ART 50 mg/kg body wt i.p.): 2%
- Differential Count % N (Neutrophils) (tumor-bearing mice; ART 50 mg/kg body wt i.p.): 41± 1.5 %
- Hb (tumor-bearing mice; ART 50 mg/kg body wt i.p.): 14.6 ± 0.61 g/dL
- Total RBC (tumor-bearing mice; ART 50 mg/kg body wt i.p.): 7.6± 0.67^* 10^6 cells/mm^3
- Total WBC (tumor-bearing mice; ART 50 mg/kg body wt i.p.): 9.1± 1.23^*** 10^3 cells/mm^3
- percentage of apoptotic cells (MDA-MB-231 cells): 22%
- body weight (Body weight of mice; normal mice, ART 6.25-50 mg/kg, 7 days, vs vehicle): did not alter
- body weight (Body weight of mice; tumor-bearing mice, ART treatment, dose-dependent): restored towards normal values
